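Grown in 96-well plates, cells were treated for 48 hours with each compound at five concentrations. Insufficient inhibition: endpoint recorded as highest concentration tested. Abbreviation: GI50, concentration required for 50% inhibition of growth.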 The source made the active and inactive calls. No stated cut-off is given here; in the data, active = GI50 up to about 1.1 µM and inactive = higher. Where only a bound is given, the exact number is not on record here.

What all share (assay): NCI tumour cell line growth inhibition, 48 h
Assay [1] relates to SN12C.
Assay [2] concerns CAKI-1.
For assay [3], the system named is HL-60.
Assay [4] relates to M14.
Assay [5] relates to SK-MEL-28.
For assay [6], the system named is SF-539.
Assay [7] deals with COLO 205.
The subject of assay [8] is RXF 393.
In assay [9] the test system is U-251.
In assay [10] the test system is Malme-3M.
Assay [11] concerns NCI-H522.
Assay [12] concerns K562.
Assay [13] concerns NCI-H460.
Assay [14] has as its system UO-31.
The subject of assay [15] is HOP-62.
The test system of assay [16] is SNB-75.
Assay [17] relates to MOLT-4.
In assay [18] the test system is PC-3.
The test system of assay [19] is LOX IMVI.
Assay [20] concerns TK-10.

As for `CC(=O)NC1C(O)C(O)C(CO)OC1n1ncc(=O)[nH]c1=O` (stereo not given), the GI50 in [1], in assay [2], in assay [3], in assay [4], in assay [5] and in [6] was > 100 µM (inactive) throughout. Besides, the GI50 in assay [7], in assay [8], in assay [9], in assay [10], in [11] and in [12] was > 100 µM (inactive) each time. In addition, the GI50 in [13], in assay [14], in [15], in [16], in assay [17] and in assay [18] was > 100 µM (inactive) in each case. Besides, the GI50 in assay [19] and in assay [20] was > 100 µM (inactive) in each case.

For `O=C(NNC(=S)Nc1ccccc1)c1ccccc1Nc1ccccc1C(=O)NNC(=S)Nc1ccccc1`, the GI50 in assay [1] was 19.6 µM (inactive); in assay [2], 48.2 µM (inactive); in assay [3], 35.5 µM (inactive); in [4], 19 µM (inactive); in assay [5] it was 33 µM (inactive); in assay [6] it was 24.1 µM (inactive). For the same molecule, the GI50 in assay [7] is 22.1 µM (inactive); in assay [8], 19.2 µM (inactive); in assay [9], 19.5 µM (inactive); in assay [10] it was 19.8 µM (inactive); in assay [11] it was 16.5 µM (inactive); in [12], 74 µM (inactive). Further, the GI50 in assay [13] is 20 µM (inactive); in assay [14], 17.7 µM (inactive); in assay [15], 21.7 µM (inactive); in [16] it was 22.4 µM (inactive); in [17], 29.6 µM (inactive); in assay [18], 23 µM (inactive). The GI50 in assay [19] is 12.9 µM (inactive); in assay [20] it was 25.3 µM (inactive).

As for `COC(=O)CSSCc1ccc([N+](=O)[O-])cc1`, the GI50 is 14.8 µM (inactive) in assay [1]; 2.23 µM (inactive) in assay [2]; 21.1 µM (inactive) in assay [3]; 19.8 µM (inactive) in assay [4]; 18 µM (inactive) in assay [5]; 18.2 µM (inactive) in assay [6]. Further, the GI50 in assay [7] is 18.7 µM (inactive); in assay [8] it was 18.4 µM (inactive); in [9], 12.3 µM (inactive); in [10], 29.6 µM (inactive); in assay [11], 13.4 µM (inactive); in assay [12] it was 29.6 µM (inactive). Further, the GI50 was 33.7 µM (inactive) in [13]; 10.6 µM (inactive) in assay [14]; 20.1 µM (inactive) in [15]; 20 µM (inactive) in assay [16]; 3.93 µM (inactive) in assay [17]; 28.1 µM (inactive) in assay [18]. For the same molecule, the results for the GI50 in assay [19] and in assay [20] were 12.8 µM (inactive) and 16.2 µM (inactive), respectively.

Take `CCCCCc1cc(CCCC)sc1-c1ccco1`: the GI50 in assay [1] was > 100 µM (inactive); in assay [2], > 100 µM (inactive); in assay [3], 21.7 µM (inactive); in [4] it was 97.5 µM (inactive); in assay [5], > 100 µM (inactive); in [6], > 93.8 µM (inactive). Besides, the GI50 in assay [7] was > 100 µM (inactive); in assay [8] it was 45.8 µM (inactive); in assay [9], > 76.7 µM (inactive); in assay [10], 40 µM (inactive); in assay [11], > 100 µM (inactive); in [12], > 58.2 µM (inactive). The GI50 in assay [13] was > 100 µM (inactive); in assay [14] it was > 100 µM (inactive); in [15], > 100 µM (inactive); in [16] it was > 100 µM (inactive); in assay [17], 51.9 µM (inactive); in assay [18], > 100 µM (inactive). Moreover, the GI50 is 49.9 µM (inactive) in assay [19] and > 100 µM (inactive) in assay [20].

On to `CCC1(CC)N=C(C(F)(F)F)c2cc(C(=O)C(F)(F)F)c3ccccc3c2N1`, for which the GI50 was 3.41 µM (inactive) in assay [1]; 3.99 µM (inactive) in [2]; 2.95 µM (inactive) in assay [3]; 4.89 µM (inactive) in [4]; 8.26 µM (inactive) in assay [5]; 17.9 µM (inactive) in [6]. Also, the GI50 in [7] is 14 µM (inactive); in assay [8], 3.15 µM (inactive); in [9], 3.64 µM (inactive); in assay [10], 11.4 µM (inactive); in assay [11], 3.94 µM (inactive); in assay [12], 3.72 µM (inactive). Also, the GI50 in assay [13] was 4.16 µM (inactive); in assay [14], 3.3 µM (inactive); in assay [15] it was 5.19 µM (inactive); in assay [16], 4.2 µM (inactive); in assay [17] it was 2.82 µM (inactive); in assay [18] it was 3.3 µM (inactive). In addition, the GI50 in assay [19] is 3.64 µM (inactive); in assay [20] it was 8.63 µM (inactive).

On to `Cn1c(=O)c2c(nc3n(C)c(=O)c4ccccc4n23)n(C)c1=O`, for which the GI50 in assay [1] is 29.2 µM (inactive); in [2] it was 24.3 µM (inactive); in assay [3], 24 µM (inactive); in assay [4], > 96.6 µM (inactive); in assay [5], > 100 µM (inactive); in assay [6] it was 34.8 µM (inactive). The GI50 is > 93.5 µM (inactive) in assay [7]; > 61.8 µM (inactive) in assay [8]; 34 µM (inactive) in assay [9]; > 49.3 µM (inactive) in [10]; 25.1 µM (inactive) in assay [11]; > 67 µM (inactive) in assay [12]. The GI50 is 6.93 µM (inactive) in [13]; 39.1 µM (inactive) in assay [14]; 21 µM (inactive) in assay [15]; 40.1 µM (inactive) in assay [16]; 3.18 µM (inactive) in assay [17]; > 95.3 µM (inactive) in assay [18]. Moreover, the GI50 was 38.7 µM (inactive) in assay [19] and > 100 µM (inactive) in assay [20].

Consider `O=C(c1c(F)c(F)c(F)c(F)c1F)N1CCN(C(=O)c2c(F)c(F)c(F)c(F)c2F)C1=S`, for which the GI50 in assay [1] was 8.11 µM (inactive); in [2], 2.69 µM (inactive); in [3], 1.07 µM (active); in assay [4], 1.56 µM (inactive); in assay [5], 4.8 µM (inactive); in assay [6] it was 10.8 µM (inactive). For the same molecule, the GI50 in assay [7] was 7.01 µM (inactive); in assay [8], 2.62 µM (inactive); in [9], 6.49 µM (inactive); in assay [10], 4.58 µM (inactive); in assay [11] it was 0.582 µM (active); in assay [12], 1.96 µM (inactive). In addition, the GI50 was 10.7 µM (inactive) in assay [13]; 5.55 µM (inactive) in [14]; 15.2 µM (inactive) in assay [15]; 11 µM (inactive) in assay [16]; 2.77 µM (inactive) in [17]; 7.67 µM (inactive) in assay [18]. Moreover, the values for the GI50 in [19] and in [20] were 2.51 µM (inactive) and 13.9 µM (inactive), respectively.

On to `Cc1cc(N(CC(C)Br)CC(C)Br)ccc1/N=N/c1ccccc1C(=O)O` (stereo not given), for which the GI50 in assay [1] is 4.72 µM (inactive); in assay [2], 2.49 µM (inactive); in [3], 6.05 µM (inactive); in assay [4], 6.04 µM (inactive); in assay [5] it was 1.93 µM (inactive); in assay [6], 1.45 µM (inactive). Further, the GI50 in assay [7] was 5.47 µM (inactive); in [8], 0.881 µM (active); in [9] it was 4.8 µM (inactive); in assay [10], 4.61 µM (inactive); in assay [11], 3.03 µM (inactive); in [12], 1.03 µM (active). Also, the GI50 is 0.454 µM (active) in assay [13]; 5.86 µM (inactive) in assay [14]; 4.71 µM (inactive) in [15]; 2.43 µM (inactive) in assay [16]; 16.9 µM (inactive) in assay [17]; 12.9 µM (inactive) in [18]. Further, the GI50 was 7.59 µM (inactive) in [19] and 11.7 µM (inactive) in [20].

Consider `CC1Cc2cc(O)ccc2C2[C@@H]1C1CC[C@H](O)[C@@]1(C)C[C@@H]2O[N+](=O)[O-]` (stereo not given in full), for which the GI50 is 14.7 µM (inactive) in [1]; 10.2 µM (inactive) in assay [2]; 2.79 µM (inactive) in assay [3]; 6.15 µM (inactive) in assay [4]; 17.5 µM (inactive) in assay [5]; 3.79 µM (inactive) in assay [6]. Moreover, the GI50 in [7] is 22.3 µM (inactive); in assay [8] it was 2.73 µM (inactive); in assay [9], 3.99 µM (inactive); in assay [10], 10.7 µM (inactive); in assay [11], 5.62 µM (inactive); in assay [12], 3.79 µM (inactive). Moreover, the GI50 in [13] is 9.35 µM (inactive); in assay [14], 13.7 µM (inactive); in [15] it was 8.83 µM (inactive); in [16], 10.3 µM (inactive); in assay [17] it was 7.48 µM (inactive); in [18], 20.1 µM (inactive). For the same molecule, the GI50 in [19] was 9.2 µM (inactive); in [20], 13.2 µM (inactive).

For the molecule `O=C1C(SCCO)=C(SCCO)C(=O)c2ccccc21`, the GI50 is 1.6 µM (inactive) in [1]; 2.08 µM (inactive) in assay [2]; 1.17 µM (inactive) in assay [3]; 0.815 µM (active) in assay [4]; 1.67 µM (inactive) in [5]; 0.745 µM (active) in assay [6]. The GI50 was 1.77 µM (inactive) in assay [7]; 1.33 µM (inactive) in [8]; 0.711 µM (active) in assay [9]; 1.1 µM (active) in assay [10]; 1.86 µM (inactive) in assay [11]; 1.67 µM (inactive) in [12]. Also, the GI50 is 1.77 µM (inactive) in [13]; 1.08 µM (active) in assay [14]; 1.85 µM (inactive) in [15]; 1.29 µM (inactive) in assay [16]; 0.0794 µM (active) in assay [17]; 2.1 µM (inactive) in [18]. Moreover, the GI50 in assay [19] is 0.222 µM (active); in assay [20], 1.62 µM (inactive).

(Values after ChEMBL document CHEMBL1201862, “PubChem BioAssay data set” (2004).)
